Where “and” joins values, the source holds several entries; their conditions need not be identical. Equal values may be shown once. Inconclusive results and toxic doses are left out. Rule for the calls: active = survival T/C of 150% or more; inactive = T/C below 125% in these data. Non-standard residues stand in square brackets, D forms with d. Residues, ends and D or L forms follow the SMILES beside them. ξ: configuration not given here. ξK = NCCCCC(N)C(=O)O
System: BDF1 mice, P388 leukemia ip, median survival T/C
Test: NCI In Vivo Anticancer Drug Screen. Data for tumor model P388 Leukemia (intraperitoneal) in B6D2F1 (BDF1) mice
Details: endpoint: median survival time, higher = longer survival
Summary of the method: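 Compound-treated tumour-bearing mice were compared with vehicle-treated controls. Survival was recorded, and the value is the treated-group measurement divided by the control-group measurement (T/C).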

[1] = dose: 100.0 mg/kg/injection, schedule: Q04DX003 (ip), vehicle: saline sonified
[2] = dose: 200.0 mg/kg/injection, schedule: Q04DX003 (ip), vehicle: saline sonified
[3] = dose: 100.0 mg/kg/injection, schedule: Q04DX003 (ip), vehicle: saline with Tween-80
[4] = dose: 200.0 mg/kg/injection, schedule: Q04DX003 (ip), vehicle: saline with Tween-80
[5] = dose: 400.0 mg/kg/injection, schedule: Q04DX003 (ip), vehicle: saline with Tween-80
[6] = dose: 50.0 mg/kg/injection, schedule: Q01DX009 (ip), vehicle: saline
[7] = dose: 100.0 mg/kg/injection, schedule: Q01DX009 (ip), vehicle: saline

Measured: T/C

CC(C)CCC[C@@H](C)[C@H]1CC[C@H]2[C@@H]3CC=C4C[C@@H](Cl)CC[C@]4(C)[C@H]3CC[C@]12C
inactive: dose: 50.0 mg/kg/injection, schedule: Q04DX003 (sc), vehicle: Klucel (hydroxypropylcellulose) (HPC) 95 % of control | dose: 100.0 mg/kg/injection, schedule: Q04DX003 (sc), vehicle: Klucel (hydroxypropylcellulose) (HPC) 104 % of control | dose: 200.0 mg/kg/injection, schedule: Q04DX003 (sc), vehicle: Klucel (hydroxypropylcellulose) (HPC) 95 % of control

COc1ccc(SC2=C(N(C)C(C)=O)C(=O)c3ccccc3C2=O)cc1
inactive: dose: 0.93 mg/kg/injection, schedule: Q01DX009 (ip), vehicle: Klucel (hydroxypropylcellulose) (HPC) 109 % of control | dose: 1.87 mg/kg/injection, schedule: Q01DX009 (ip), vehicle: Klucel (hydroxypropylcellulose) (HPC) 113 % of control | dose: 3.75 mg/kg/injection, schedule: Q01DX009 (ip), vehicle: Klucel (hydroxypropylcellulose) (HPC) 113 % of control | dose: 7.5 mg/kg/injection, schedule: Q01DX009 (ip), vehicle: Klucel (hydroxypropylcellulose) (HPC) 108 % of control | dose: 11.0 mg/kg/injection, schedule: Q04DX003 (ip), vehicle: Klucel (hydroxypropylcellulose) (HPC) 100 % of control | dose: 17.0 mg/kg/injection, schedule: Q04DX003 (ip), vehicle: Klucel (hydroxypropylcellulose) (HPC) 100 % of control

CN1CC2CC(C1)c1cccc(=O)n1C2 (stereo not drawn)
inactive: dose: 5.0 mg/kg/injection, schedule: Q01DX010 (ip), vehicle: saline 86 % of control | dose: 10.0 mg/kg/injection, schedule: Q01DX010 (ip), vehicle: saline 109 % of control | dose: 20.0 mg/kg/injection, schedule: Q01DX010 (ip), vehicle: saline 104 % of control | dose: 40.0 mg/kg/injection, schedule: Q01DX010 (ip), vehicle: saline 95 % of control

CN(C)CCCn1c(=O)c2ccccc2c2ccccc21
inactive: dose: 12.5 mg/kg/injection, schedule: Q01DX010 (ip), vehicle: saline 90 % of control | dose: 25.0 mg/kg/injection, schedule: Q01DX010 (ip), vehicle: saline 90 % of control | dose: 50.0 mg/kg/injection, schedule: Q01DX010 (ip), vehicle: saline 90 % of control

Nc1nc(SCc2ccccc2)c2ncn(C3OC(CO)CC3O)c2n1 (stereo not drawn)
inactive: dose: 100.0 mg/kg/injection, schedule: Q01DX009 (ip), vehicle: saline sonified 100 % of control | [1] 109 % of control | dose: 200.0 mg/kg/injection, schedule: Q01DX009 (ip), vehicle: saline sonified 100 % of control | [2] 109 % of control | dose: 400.0 mg/kg/injection, schedule: Q01DX009 (ip), vehicle: saline sonified 113 % of control | dose: 400.0 mg/kg/injection, schedule: Q04DX003 (ip), vehicle: saline sonified 109 % of control

COc1ccc(/C=C/NC=O)cc1
inactive: dose: 50.0 mg/kg/injection, schedule: Q04DX003 (ip), vehicle: other 105 % of control | dose: 100.0 mg/kg/injection, schedule: Q04DX003 (ip), vehicle: other 112 % of control | dose: 200.0 mg/kg/injection, schedule: Q04DX003 (ip), vehicle: other 112 % of control | dose: 400.0 mg/kg/injection, schedule: Q04DX003 (ip), vehicle: other 91 % of control

CC(=O)CC(=O)NCCNCCNC(=O)CC(C)=O
inactive: dose: 100.0 mg/kg/injection, schedule: Q04DX003 (ip), vehicle: saline 100 % of control | dose: 200.0 mg/kg/injection, schedule: Q04DX003 (ip), vehicle: saline 114 % of control | dose: 400.0 mg/kg/injection, schedule: Q04DX003 (ip), vehicle: saline 100 % of control

CCOCCN1CCN(CCCN2c3ccccc3Sc3ccc(C(F)(F)F)cc32)CC1
inactive: dose: 6.25 mg/kg/injection, schedule: Q04DX003 (ip), vehicle: saline 107 % of control and 112 % of control | dose: 12.5 mg/kg/injection, schedule: Q04DX003 (ip), vehicle: saline 116 % of control | dose: 50.0 mg/kg/injection, schedule: Q04DX003 (ip), vehicle: saline 101 % of control

S=C(/N=C1\CCC\C1=C/c1ccccc1)/N=C1\CCC\C1=C/c1ccccc1
inactive: [3] 100 % of control | [4] 109 % of control | [5] 115 % of control

ClCc1c2ccccc2c(CCl)c2ccccc12
active: dose: 0.21 mg/kg/injection, schedule: Q01DX009 (ip), vehicle: saline 154 % of control | dose: 0.33 mg/kg/injection, schedule: Q01DX009 (ip), vehicle: saline 159 % of control and 190 % of control | dose: 0.49 mg/kg/injection, schedule: Q01DX009 (ip), vehicle: saline 154 % of control | dose: 1.3 mg/kg/injection, schedule: Q04DX003 (ip), vehicle: Klucel (hydroxypropylcellulose) (HPC) 150 % of control | dose: 1.35 mg/kg/injection, schedule: Q01DX009 (ip), vehicle: saline 180 % of control | dose: 1.5 mg/kg/injection, schedule: Q01DX009 (ip), vehicle: Klucel (hydroxypropylcellulose) (HPC) 153 % of control | dose: 2.0 mg/kg/injection, schedule: Q04DX003 (ip), vehicle: Klucel (hydroxypropylcellulose) (HPC) 170 % of control | dose: 3.0 mg/kg/injection, schedule: Q01DX009 (ip), vehicle: Klucel (hydroxypropylcellulose) (HPC) 157 % of control and 200 % of control | dose: 3.0 mg/kg/injection, schedule: Q04DX003 (ip), vehicle: Klucel (hydroxypropylcellulose) (HPC) 154 % of control and 166 % of control | dose: 5.0 mg/kg/injection, schedule: Q04DX003 (ip), vehicle: Klucel (hydroxypropylcellulose) (HPC) 168 % of control | dose: 8.0 mg/kg/injection, schedule: Q04DX003 (ip), vehicle: Klucel (hydroxypropylcellulose) (HPC) 154 % of control and 172 % of control | dose: 12.0 mg/kg/injection, schedule: Q04DX003 (ip), vehicle: Klucel (hydroxypropylcellulose) (HPC) 177 % of control
inactive: dose: 6.0 mg/kg/injection, schedule: Q01DX009 (ip), vehicle: Klucel (hydroxypropylcellulose) (HPC) 105 % of control

NCCCCC(N)C(=O)NCC(=O)O (stereo not drawn) (H-[ξK]-Gly-OH)
inactive: dose: 50.0 mg/kg/injection, schedule: Q01DX005 (ip), vehicle: saline 95 % of control | dose: 100.0 mg/kg/injection, schedule: Q01DX005 (ip), vehicle: saline 102 % of control | dose: 200.0 mg/kg/injection, schedule: Q01DX005 (ip), vehicle: saline 88 % of control

CCCCOCCOc1ccc(C(=O)OC)cc1
inactive: dose: 50.0 mg/kg/injection, schedule: Q04DX003 (ip), vehicle: saline sonified 100 % of control | [1] 100 % of control | [2] 105 % of control

NCCc1c[nH]c2ccc(F)cc12
inactive: dose: 12.5 mg/kg/injection, schedule: Q01DX009 (ip), vehicle: saline 91 % of control | dose: 25.0 mg/kg/injection, schedule: Q01DX009 (ip), vehicle: saline 98 % of control | [6] 98 % of control | [7] 91 % of control

OP(=S)(c1ccccc1)c1ccccc1
inactive: dose: 50.0 mg/kg/injection, schedule: Q01DX009 (ip), vehicle: other 110 % of control | dose: 100.0 mg/kg/injection, schedule: Q01DX009 (ip), vehicle: other 106 % of control | dose: 200.0 mg/kg/injection, schedule: Q01DX009 (ip), vehicle: other 108 % of control

CCC(c1ccccc1)C(C(=O)O)C(=O)O (stereo not drawn)
inactive: dose: 100.0 mg/kg/injection, schedule: Q04DX002 (ip), vehicle: saline with Tween-80 110 % of control | dose: 200.0 mg/kg/injection, schedule: Q04DX002 (ip), vehicle: saline with Tween-80 101 % of control | dose: 400.0 mg/kg/injection, schedule: Q04DX002 (ip), vehicle: saline with Tween-80 103 % of control

CC[N+](CC)(CC)CC[N+](CC)(CC)CC
inactive: [6] 95 % of control | [7] 96 % of control and 88 % of control | dose: 200.0 mg/kg/injection, schedule: Q01DX009 (ip), vehicle: saline 95 % of control and 91 % of control

CC(=O)CC(=O)Nc1ccc(N=Nc2ccccc2)cc1
inactive: [3] 109 % of control | [4] 109 % of control | [5] 119 % of control

OCC12COCN1COC2
inactive: [6] 104 % of control | [7] 104 % of control

O=C(NNc1ccc([N+](=O)[O-])cc1)c1ccccc1
inactive: dose: 50.0 mg/kg/injection, schedule: Q01DX009 (ip), vehicle: Klucel (hydroxypropylcellulose) (HPC) 100 % of control | dose: 100.0 mg/kg/injection, schedule: Q01DX009 (ip), vehicle: Klucel (hydroxypropylcellulose) (HPC) 90 % of control | dose: 100.0 mg/kg/injection, schedule: Q04DX003 (ip), vehicle: Klucel (hydroxypropylcellulose) (HPC) 115 % of control | dose: 200.0 mg/kg/injection, schedule: Q01DX009 (ip), vehicle: Klucel (hydroxypropylcellulose) (HPC) 100 % of control | dose: 200.0 mg/kg/injection, schedule: Q04DX003 (ip), vehicle: Klucel (hydroxypropylcellulose) (HPC) 100 % of control | dose: 400.0 mg/kg/injection, schedule: Q04DX003 (ip), vehicle: Klucel (hydroxypropylcellulose) (HPC) 95 % of control

Reference: PubChem BioAssay AID328 (DTP/NCI, 2004)
